Patent publication US11186606B2, “Compositions and methods of modulating the immune response by activating alpha protein kinase 1” (Shanghai Yao Yuan Biotechnology Co., Ltd., priority 2017, dated 2021)

How the values were obtained:
[1] = system: ALPK1; test: IL8 secretion in HEK293 cells (IL8 ELISA) as indicator of ALPK1 activation; conditions: added to the FBS-containing medium, HEK293 cells, IL8 secretion
Protocol: (§1) We pre-mixed H1b-ADP with phosphatase inhibitor sodium orthovanadate (Na3VO4) before incubation with FBS.
(§2) In these experiments, serial dilutions of the compounds were added to the tissue culture media of HEK293 cells with (FIG. 27B, FIG. 28B, FIG. 29B) or without (FIG. 26, FIG. 27A, FIG. 28A, FIG. 29A) 10% FBS, as indicated in the figures. After 4 hours, the cell supernatant was collected and analyzed for IL8 concentration using IL8 ELISA (BD) as an indicator of ALPK1 activation.

[2] = system: phosphatase activity in the serum; test: Incubation of H1b-ADP with FBS, product analysed by LC-MS; type: in vitro ADME, bovine; conditions: pre-treatment of H1b-ADP before serum incubation
From the text: FBS contains 110-352 U/ml alkaline phosphatase.

[3] = target: T1, ALPK1 (Homo sapiens, UniProt Q96QP1); test: IL8 secretion in HEK293 cells (IL8 ELISA) as indicator of ALPK1 activation; conditions: without FBS, 4 hours
Protocol: as §1, §2

[4] = system: CT26 cells; test: CT26 tumor xenograft model, tumor volume; type: in vivo, BALB/c mice
Protocol: We used a CT26 tumor xenograft model to test the anti-cancer activity of H1b-ADP. Tumor cells (2×10^5 per 100 uL CT26 cells) were inoculated subcutaneously into the right flank of BALB/c mice. At day 6, mice whose tumors had reached 3-5 mm in diameter were randomized and grouped into three groups (n=8 each group), control, HMP-1bP (580 ug), and H1b-ADP (1.2 ug). Injections were performed using a total volume of 20 uL at days 6, 8, 10, 12, and 14 post inoculation. Tumor volumes were calculated every 2 days from caliper measurements of tumor dimension using the formula (L×W^2)/2, where L is the longer measurement.
To test whether H1b-ADP could augment an anti-tumor response by a checkpoint inhibitor, we tested the effects of co-administration with an anti-PD1 antibody. Tumor cells (2×10^5 per 100 μL CT26 cells) were inoculated subcutaneously into the left and right flanks of BALB/c mice. At day 7, mice whose tumors had reached 5 mm in diameter were randomized and grouped (n=8 each group) into the following four groups: anti-PD1 antibody; rat IgG; H1b-ADP+rat IgG; H1b-ADP+anti-PD1 antibody. We utilized RMP1-14 as the anti-PD1 antibody (10 mg/kg) and a rat IgG 2a (2A3) as the control IgG. Each of the anti-PD-1 antibody and the control IgG was administered intraperitoneally in a 200 μL volume on days 6, 10, 12, and 17 post-inoculation. H1b-ADP (6.2 μg) was intratumorally injected in a 20 μL volume at day 6, 8, 10, 12, and 15. Tumor volumes were calculated every 2 days from caliper measurements of tumor dimensions using the formula (L×W^2)/2, where L is the longer measurement. The results are shown in FIG. 13A for injected tumors and FIG. 13B for distant tumors. […]
The experiment was carried out as combo experiments of anti-PD1 except for the following variations. At day 6, mice whose tumors had reached 5 mm in diameter were randomized and grouped into the following four groups: c-di-AM(PS)2; PBS; H1b-ADP; H1b-ADP+c-di-AM(PS)2. We utilized c-di-AM(PS)2 as the STING agonist. Each of the c-di-AM(PS)2 (1 μg) and H1b-ADP (6.2 μg) was administered intratumorally in a 20 μL volume on days 6, 7, and 9 post-inoculation.
The experiment was carried out as combo experiments of anti-PD-1 except for the following variations. At day 6, mice whose tumors had reached 5 mm in diameter were randomized and grouped into the following four groups: anti-CD4 antibody (GK1.5 clone, BE0003-1, BioXcell); rat IgG; H1b-ADP+rat IgG; H1b-ADP+anti-CD4 antibody. Each of the anti-CD4 antibody (200 μg) and the control IgG (200 μg) was administered intraperitoneally in a 200 μL volume on days 3, 4, 8 post-inoculation. H1b-ADP (6.2 μg) was administered intratumorally in a 20 μL volume on days 6, 8, 10, 12, 14 post-inoculation.
The experiment was carried out as combo experiments of anti-PD-1 except for the following variations. At day 6, mice whose tumors had reached 5 mm in diameter were randomized and grouped into the following four groups: Resquimod; PBS; H1b-ADP; H1b-ADP+Resquimod. Resquimod (10 μg) and H1b-ADP (6.2 μg) were administered intratumorally in a 20 μL volume on days 6, 8, 11 post-inoculation.
We used a CT26 tumor xenograft model to test the anti-cancer activity of H1b-ADP derivative Compounds 1 and 2. Tumor cells (2×10^5 per 100 uL CT26 cells) were inoculated subcutaneously into the right flank of BALB/c mice. At day 7, mice whose tumors had reached 3-5 mm in diameter were randomized and grouped into three groups (n=9 each group), control, Compound 1 (50 nmol), and Compound 2 (50 nmol). Injections were performed using a total volume of 20 uL at days 7, 9, and 11 post inoculation. Tumor volumes were calculated every 2 days from caliper measurements of tumor dimension using the formula (L×W^2)/2, where L is the longer measurement.

[5] = system: mouse liver and lung tissue; test: Chemokine and cytokine expression in liver and lung tissue after subcutaneous injection (qPCR); type: in vivo; conditions: C57 mice, three hours
Protocol: In additional experiments, Compound 1 was injected subcutaneously into 7 week old C57 mice at concentrations of 2, 10, 50, and 200 nmol. Tissue was harvested three hours later and RNA extracted. Quantitative PCR (qPCR) was performed to determine the tissue expression levels Cxcl1, Cxcl11, IL1b, and IL6 in mouse liver (FIG. 32A) and lung (FIG. 32B) tissue. Additional chemokines and cytokines were assayed in the lung tissue.

[6] = target: T1, ALPK1; test: In vitro kinase assay of ALPK1-dependent TIFA phosphorylation; type: biochemical; conditions: for phosphorylation of the ALPK1 substrate TIFA: FIG. 7, chemically-synthesized compounds
Protocol: We performed an in vitro kinase assay with H1b-ADP and H1b-ADP-6L along with ALPK1 protein (2 nM), and TIFA protein (1.6 uM) in kinase buffer containing 50 uM ATP. TIFA phosphorylation was analyzed by denaturing gel electrophoresis followed by western blotting using an anti-phosphothreonine antibody. H1b-ADP or H1b-ADP-6L was added at 2 nM, 0.4 nM, 80 pM, 16 pM, and 3 pM.
To test this, we performed an in vitro kinase reaction for ALPK1-dependent TIFA phosphorylation in the presence of either HBP or HIdA purified from E. coli containing inactivated HIdE, or in the presence of HBP and HIdA purified from the same HIdE wild-type E. coli used in the previous experiments. Phosphorylated TIFA (three concentrations, 1%, 0.2% and […]) was detected as described above by denaturing gel electrophoresis followed by Western analysis.

[7] = target: T1, ALPK1; test: Thermal shift assay (SYPRO Orange) for binding to ALPK1; conditions: ALPK1 7 uM; 1 uM, 5 uM, 25 uM, or 125 uM
From the text: The thermal shift assay is widely used to determine the binding of a molecule to a protein of interest. The assay is based on the increase in thermal energy required for denaturation of a protein where another molecule is bound to the protein. SYPRO Orange is a fluorescent compound used in the detection of thermal shift. SYPRO Orange binds to hydrophobic surfaces of the protein, and water strongly quenches its fluorescence. When the protein unfolds, the exposed hydrophobic surfaces bind the dye, resulting in an increase in fluorescence. When another molecule is bound to the protein, an increase in the temperature required for unfolding of the protein is observed.
This assay system was used to determine whether or not chemically synthesized HBP, HMP-1bP, and H1b-ADP directly bind to ALPK1. […] Only H1b-ADP induced a shift of more than 1 degree, at each of the three highest concentrations tested, 5 uM, 25 uM, and 125 uM.

[8] = target: T1, ALPK1; test: Cell-free kinase assay of ALPK1 autophosphorylation (Western, anti-phospho-threonine); type: biochemical; conditions: ALPK1 2 nM, ATP; H1b-ADP 10, 1, 0.2 nM; HBP and HMP-1bP 1, 10, 100 nM
Protocol: ALPK1 activation results in its autophosphorylation. Accordingly, we next asked whether the binding of H1b-ADP to ALPK1 was sufficient to induce ALPK1 autophosphorylation. Phosphorylation assays were performed according to standard protocols. Briefly, ALPK1 was incubated (2 nM, 25° C., 1 h) in assay buffer (20 al, 25 mM HEPES pH 7.5, 50 mM KCl, 0.1 mM EDTA, 0.1 mM EGTA, 2 mM DTT, 1.5 mM CaCl2, 10 mM MgCl2) with ATP and chemically synthesized HBP, HMP-1bP, or H1b-ADP followed by denaturing gel electrophoresis and Western analysis with an anti-phospho-threonine antibody (CST) to detect autophosphorylation of ALPK1. […] The range of concentrations of HBP and HMP-1bP used in this assay (1 nM, 10 nM, 100 nM) was 10-fold higher than that used for H1b-ADP.

[9] = target: T1, ALPK1; test: IL-8 and TNFα mRNA expression in HEK293 cells with control or ALPK1-directed siRNA; type: cell-based; parameters: ALPK1-directed small interfering RNA (siRNA) to silence ALPK1 expression in HEK293 cells; endogenous in cells; host or cells: HEK293; conditions: for IL-8 mRNA expression / TNFα mRNA expression: 4 hours, control vs ALPK1-directed siRNA; for concentration required to induce IL-8 and TNFα mRNA expression: FIG. 5
Protocol: To test whether HBP, HMP-1bP, and H1b-ADP were able to induce cytokine expression in an ALPK1 dependent manner, we used an ALPK1-directed small interfering RNA (siRNA) to silence ALPK1 expression in HEK293 cells. Cells were plated (1×10^4 cells/well) into 96-well plates and transfected with either control siRNA or ALPK1-directed siRNA according to the manufacturer's protocols (Lipofectamine™ RNAiMax™, Invitrogen 13778075). Following 2 days of culture, either (1) HBP (500 uM, 100 uM, 20 uM, FIG. 2A-2B) (2) HMP-1bP (500 uM, 100 uM, FIG. 3A-3B), (3) H1b-ADP (100 nM, 20 nM, 4 nM, 0.8 nM, FIG. 4A-4B) was added to culture medium and cells were harvested 4 hours later.

[10] = Example 18: 50 nmol, injections days 7, 9, 11

T1 sequence (Q96QP1 whole entry): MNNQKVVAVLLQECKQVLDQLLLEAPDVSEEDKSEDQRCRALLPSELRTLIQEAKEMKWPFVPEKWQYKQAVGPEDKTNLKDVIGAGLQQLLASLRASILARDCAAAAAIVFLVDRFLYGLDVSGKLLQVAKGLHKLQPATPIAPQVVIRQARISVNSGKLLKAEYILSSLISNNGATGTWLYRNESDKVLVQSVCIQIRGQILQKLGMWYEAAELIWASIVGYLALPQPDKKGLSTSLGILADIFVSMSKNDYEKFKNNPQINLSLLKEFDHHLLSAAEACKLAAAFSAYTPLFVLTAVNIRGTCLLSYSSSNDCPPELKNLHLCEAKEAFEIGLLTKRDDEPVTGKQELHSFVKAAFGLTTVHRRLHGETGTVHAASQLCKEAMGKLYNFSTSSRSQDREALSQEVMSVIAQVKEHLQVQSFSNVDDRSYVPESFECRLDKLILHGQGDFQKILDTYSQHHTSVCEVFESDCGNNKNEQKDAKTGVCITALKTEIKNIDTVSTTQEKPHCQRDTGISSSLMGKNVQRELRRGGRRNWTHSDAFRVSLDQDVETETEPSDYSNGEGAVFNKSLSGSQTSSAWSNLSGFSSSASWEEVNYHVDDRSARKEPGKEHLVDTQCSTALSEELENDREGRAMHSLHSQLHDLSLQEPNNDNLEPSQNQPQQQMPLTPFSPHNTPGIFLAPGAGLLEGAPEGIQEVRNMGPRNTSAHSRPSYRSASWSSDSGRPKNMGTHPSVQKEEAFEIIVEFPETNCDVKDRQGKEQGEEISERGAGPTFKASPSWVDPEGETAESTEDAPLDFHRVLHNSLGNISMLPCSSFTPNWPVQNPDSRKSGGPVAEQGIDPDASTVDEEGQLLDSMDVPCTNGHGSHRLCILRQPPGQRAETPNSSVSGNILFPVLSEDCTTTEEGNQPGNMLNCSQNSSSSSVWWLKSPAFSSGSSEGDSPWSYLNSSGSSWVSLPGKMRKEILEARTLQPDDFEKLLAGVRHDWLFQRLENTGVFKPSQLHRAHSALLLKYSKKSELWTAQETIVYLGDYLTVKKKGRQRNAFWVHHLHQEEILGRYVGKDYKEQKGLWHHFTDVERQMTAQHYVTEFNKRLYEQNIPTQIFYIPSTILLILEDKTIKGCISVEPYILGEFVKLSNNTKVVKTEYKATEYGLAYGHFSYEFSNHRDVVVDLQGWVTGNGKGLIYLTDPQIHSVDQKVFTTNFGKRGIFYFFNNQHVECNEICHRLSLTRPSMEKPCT

phosphorylation of the ALPK1 substrate TIFA [6] | autophosphorylation of ALPK1 [8] | IL-8 mRNA expression [9] | TNFα mRNA expression [9] | concentration required to induce IL-8 and TNFα mRNA expression [9] [µM] | Structure (SMILES) | IL8 secretion in HEK293 cells [3] | tumor growth [4, 10] | thermal shift / direct binding to ALPK1 [7] | also measured
– | – | – | – | – | Nc1ncnc2c1ncn2[C@@H]1O[C@H](COP(=O)(O)O)[C@@H](O)[C@H]1O [AMP] | – | – | – | restoration of H1b-ADP's activity in the cell based assay [1]: could restore H1b-ADP's activity; phosphatase activity in serum [2]: inhibited phosphatase activity and the inhibition was AMP dose-dependent
– | – | – | – | – | CC(=O)OC[C@@H](OC(C)=O)[C@H]1O[C@@H](OP(=O)(O)OP(=O)(O)OC[C@H]2O[C@@H](n3cnc4c(N)ncnc43)[C@H](O)[C@@H]2F)[C@@H](OC(C)=O)[C@@H](OC(C)=O)[C@@H]1OC(C)=O [Compound 1, (2S,3S,4S,5R,6R)-2-(((((((2R,3S,4S,5R)-5-(6-amino-9H-purin-9-yl)-3-fluoro-4-hydroxytetrahydrofuran-2-yl)methoxy)(hydroxy)phosphoryl)oxy)(hydroxy)phosphoryl)oxy)-6-((R)-1,2-diacetoxyethyl)tetrahydro-2H-pyran-3,4,5-triyl triacetate] | activate IL8 secretion | reduced tumor growth | – | dose activating an inflammatory response in lung tissue [5]: 200 nmol; dose activating an inflammatory response in liver tissue ([5]; 2 nmole = 1.2 μg): ≤ 2 nmol
– | – | – | – | – | Nc1ncnc2c1ncn2[C@@H]1O[C@H](COP(=O)(O)OP(=O)(O)O[C@@H]2OC([C@H](O)CO)[C@@H](O)C(O)C2O)C(F)C1O (stereo partly drawn) [Compound 2, Adenosine-3′-fluoro-5′-(D-glycero-β-D-mannoheptopyranosyl) diphosphate] | activate IL8 secretion | reduced tumor growth | – | –
– | – | – | – | – | Nc1ncnc2c1ncn2[C@@H]1O[C@H](COP(=O)(O)OP(=O)(O)O[C@@H]2O[C@H]([C@@H](O)CO)[C@@H](O)[C@H](O)[C@@H]2O)[C@@H](O)[C@H]1O [Compound H1b-ADP-6L, L-glycero-D-manno-heptose-1β-ADP] | – | – | – | TIFA phosphorylation (ALPK1-dependent signaling) ([6]; ALPK1 2 nM, TIFA 1.6 uM, 50 uM ATP, 2 nM to 3 pM): activated ALPK1-dependent signaling in a manner similar to H1b-ADP
only in the presence of H1b-ADP | not | increased in an ALPK1-dependent manner | increased in an ALPK1-dependent manner | 100 | O=P(O)(O)OC[C@@H](O)[C@H]1O[C@@H](OP(=O)(O)O)[C@@H](O)[C@@H](O)[C@@H]1O [HBP, D-glycero-β-D-manno-heptose 1,7-bisphosphate] | – | – | Neither HBP nor HMP-1bP were able to induce a thermal shift | anti-tumor activity in a murine tumor model ([4]; summary statement): not
only in the presence of H1b-ADP | not | increased in an ALPK1-dependent manner | increased in an ALPK1-dependent manner | 100 | O=P(O)(O)O[C@@H]1O[C@H]([C@H](O)CO)[C@@H](O)[C@H](O)[C@@H]1O [HMP-1bP, D-glycero-β-D-manno-heptose-1-phosphate] | – | – | Neither HBP nor HMP-1bP were able to induce a thermal shift | tumor growth ([4]; intratumoral, days 6, 8, 10, 12, 14, HMP-1bP 580 ug, H1b-ADP 1.2 ug): not
